This note sets out measurements from patent publication US20260150841A1, “PYRIDINE COMPOUNDS FOR COMBATTING DIHYDROOROTATE-DEHYDROGENASE INHIBITOR-RESISTANT PHYTOPATHOGENIC FUNGI” (priority 2022, published 2026).

Molecules are shown by their SMILES. In brackets after ≈: the same amount, converted by molar mass.

Type in all cases: cell-based
In assay [1] the test system is Sclerotinia sclerotiorum (sensitive, wild-type). Description: Activity against Sclerotinia sclerotiorum in tissue culture plate assay with mycelial plugs, wild type. To be noted: 168 h, % growth after 7 days at 18° C., read-out: Absolute IC50, wild type. How it is done:
Fungal strains used: • a) Sclerotinia sclerotiorum (sensitive, wild-type) • b) Mutants of Sclerotinia sclerotiorum
Pure cultures are grown on DOB-agar medium, (3.4 g/l YNB (Becton Dickinson), 10 g/l Ammoniumsulfat, 40 g/l Glucose) for 5-7 days at 18° C. Mycelial plugs (6 mm diame-ter) taken from the margin of the colonies are used as inoculum for the sensitivity test. 500 μl fungicide-amended DOB medium (3.4 g/l YNB (Becton Dickinson), 10 g/l Ammoniumsulfat, 40 g/l Glucose, adjusted to pH 7) are added to each well of 24-well tissue culture plates. Each well is then inoculated with a mycelial plug, with the myce-lium surface up. Two replicate wells are used for each isolate and fungicide concentration. Growth is assed after 7 days incubation at 18° C. in the dark by estimating % growth in the well. IC50-values (concentration of test compound resulting in 50% inhibition of fungal growth) were calculated from the resulting dose-response for each compound and strain.

The subject of assay [2] is Botrytis cinerea mutant G111V. Description: Activity against Botrytis cinerea in the microtiter test, mutant G111V. To be noted: Botrytis cinerea, MUTANTG111V, 168 h, read-out: Absolute IC50, G111V, Botrytis cinerea mutant G111V; turbidity at 620 nm after 7 days. From the text:
(§1) The active substances were formulated separately as a stock solution in dimethyl sulfoxide (DMSO) at a concentration of 10 000 ppm.
(§2) Spontaneous mutants were selected by plating out B. cinerea spores (in the range of 10^7-10^8) on DOB agar plates (3.4 g/l YNB (Becton Dickinson), 10 g/l Ammoniumsulfat, 40 g/l Glucose, 20 g/l Agar), amended with different lethal concentrations of active ingredient. After 7-14 days growing colonies were transferred to DOB agar plates, amended with the same lethal concentrations of active ingredient and then further propagated on Oatmeal agar medium (50 g/l Oatmeal agar (Sigma), 15 g/l Agar (Difco) for sensitivity testing.
(§3) Fungal strains used: • a) Botrytis cinerea (sensitive, wild-type) • b) Various mutants of Botrytis cinerea
(§4) The spores of Botrytis cinerea were harvested with a cotton swab from an Oatmeal agar plate (50 g/l Oatmealagar (Sigma, Art.O-3506), 15 g/l agar, (Difco) and this is dipped in 3 ml of double concentrated DOB-medium (3.4 g/l YNB (Becton Dickinson), 10 g/l Ammoniumsulfat, 40 g/l Glucose, adjusted to pH 7) and the spore suspension is adjusted to a spore density of 3.2×10^4 spores/ml. The compound solutions were diluted from stock solution in (dimethylsulfoxide) DMSO in several steps with sterile deionized water before use. High test concentrations were 50 mg/L (ppm) or 31 mg/L (ppm). Compound solutions were transferred into empty microplates and filled up with an equal amount of spore suspension.
(§5) The antifungal activity was determined by measuring the turbidity of a culture in 96-well microplates in the presence of test compounds after 7 days incubation at 620 nm. A blank value for each concentration (growth media+compound, without spores) are subtracted from the spore suspension. The relative antifungal activity was calculated by comparing the effect of the test compounds with the effect of a DMSO control The results are shown in Table IV (for compounds of general formula I.A), VI (for compounds of general formula I.B), and VIII (for compounds of general formula I.C).
(§6) A compound showing an IC50 (MUT) above the IC50 (WT) and showing an IC50 (MUT) to IC50 (WT) ratio being in a range above 100 is considered unsuitable (“I”) as DHODH inhibitor.
(§7) The absolute IC50-values (concentration of test compound resulting in 50% inhibition of fungal growth) were calculated from the resulting dose-response for each compound and strain.

In assay [3] the test system is Botrytis cinerea mutant H108P. In words: Activity against Botrytis cinerea in the microtiter test, mutant H108P. To be noted: Botrytis cinerea, MUTANTH108P, 168 h, read-out: Absolute IC50, H108P, Botrytis cinerea mutant H108P; turbidity at 620 nm after 7 days.
Text: as §1, §2, §3, §4, §5, §6, §7

The subject of assay [4] is Botrytis cinerea mutant V195F. Description: Activity against Botrytis cinerea in the microtiter test, mutant V195F. To be noted: Botrytis cinerea, MUTANTV195F, 168 h, read-out: Absolute IC50, V195F, Botrytis cinerea mutant V195F; turbidity at 620 nm after 7 days.
Text: as §1, §2, §3, §4, §5, §6, §7

The subject of assay [5] is Botrytis cinerea (sensitive, wild-type). In words: Activity against Botrytis cinerea in the microtiter test, wild type. To be noted: 168 h, turbidity at 620 nm after 7 days, read-out: Absolute IC50, wild type. The protocol:
as §1, §3, §4, §5, §7

Assay [6] concerns Botrytis cinerea mutant G111E. In words: Activity against Botrytis cinerea in the microtiter test, mutant G111E. To be noted: Botrytis cinerea, MUTANTG111E, 168 h, read-out: Absolute IC50, G111E, Botrytis cinerea mutant G111E; turbidity at 620 nm after 7 days.
Text: as §1, §2, §3, §4, §5, §6, §7

In assay [7] the test system is Botrytis cinerea mutant Y208H. Description: Activity against Botrytis cinerea in the microtiter test, mutant Y208H. To be noted: Botrytis cinerea, MUTANTY208H, 168 h, read-out: Absolute IC50, Y208H, Botrytis cinerea mutant Y208H; turbidity at 620 nm after 7 days.
Text: as §1, §2, §3, §4, §5, §6, §7

By IC50 is commonly meant the concentration at which inhibition is half-maximal.

`CN1c2c(F)cccc2C(c2cnc3c(F)cccc3c2)=NC1(C)C`: in assay [1], the IC50 came to 0.03 µg/mL (≈ 0.0889 µM).
On to `Cc1cc(C2=NC3(CCC(C)(C)C3)Oc3ccccc32)cnc1C` (stereo not shown) [Ex 4], for which the IC50 in assay [1] is 8.45 µg/mL (≈ 26.4 µM).
`Cc1cc(C2=NC(C)(C)Oc3ccccc32)cnc1C` [Ex 6]: the 50% inhibitory concentration (IC50) in assay [1] amounted to 0.08 µg/mL (≈ 0.3 µM).
As for `CCC1(CC)N=C(c2cnc(C)c(C)c2)c2ccccc2O1` [Ex 7], in assay [1], the IC50 amounted to 0.23 µg/mL (≈ 0.781 µM).
With `Cc1cc(C2=NC(C)(C(C)(C)C)Oc3ccccc32)cnc1C(F)F` (stereo not shown) [Ex-3], the IC50 in assay [2] amounted to 3.17 µg/mL (≈ 9.2 µM); in assay [3], 2.54 µg/mL (≈ 7.38 µM); in assay [4] it was 0.75 µg/mL (≈ 2.18 µM); in assay [5] it was 0.19 µg/mL (≈ 0.552 µM); in assay [1] it was 0.893 µg/mL (≈ 2.59 µM); in assay [6] it was 2.81 µg/mL (≈ 8.16 µM).
Regarding `COc1ccc2c(c1)OC(C)(C)N=C2c1cnc(C(F)F)c(C)c1` [Ex-35], the IC50 was 0.72 µg/mL (≈ 2.17 µM) in assay [2]; 0.29 µg/mL (≈ 0.873 µM) in assay [3]; 0.05 µg/mL (≈ 0.15 µM) in assay [4]; 0.02 µg/mL (≈ 0.0602 µM) in assay [5]; 2.02 µg/mL (≈ 6.08 µM) in assay [7]; 0.468 µg/mL (≈ 1.41 µM) in assay [1]. The IC50 in assay [6] turned out to be 2.7 µg/mL (≈ 8.12 µM).
For `CC(C)(C)C1(C)N=C(c2cnc3c(F)cccc3c2)c2ccccc2O1` (stereo not shown) [drawing 166], in assay [1], the IC50 was 0.137 µg/mL (≈ 0.393 µM).
For `CC1(c2ccccc2)N=C(c2cnc3c(F)cccc3c2)c2cccc(F)c2O1` (stereo not shown) [drawing 168], the half-inhibitory concentration (IC50) in assay [1] was determined as 0.154 µg/mL (≈ 0.399 µM).
As to `COc1ccc2c(c1)OC(C)(C)N=C2c1cnc2c(F)cccc2c1` [drawing 170], in assay [1], the IC50 was determined as 0.06 µg/mL (≈ 0.178 µM).
Same read-out and setting: the value for `CCN1c2c(F)cccc2C(c2cnc3c(F)cccc3c2)=NC1(C)C` [drawing 175] was 0.03 µg/mL (≈ 0.0854 µM); that for `CC1(C)N=C(c2cnc3c(F)cccc3c2)c2ccccc2OC1(C)C` [drawing 178] was 2 µg/mL (≈ 5.73 µM).
